Source: PubChem BioAssay (NCI)
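Five concentrations, 48 hours, 96-well plates. GI50: concentration for 50% inhibition of growth. TGI: concentration producing complete growth inhibition.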

Legend:
Test in all cases: inhibition of tumour cell growth, NCI panel, 48 h
SNB-19 CNS = system: SNB-19 CNS
NCI-H460 lung = system: NCI-H460 lung
SF-295 CNS = system: SF-295 CNS
KM12 colon = system: KM12 colon
CAKI-1 renal = system: CAKI-1 renal
SF-268 CNS = system: SF-268 CNS
HL-60(TB) leukemia = system: HL-60(TB) leukemia
K-562 leukemia = system: K-562 leukemia
HOP-62 NSCLC = system: HOP-62 NSCLC
HT29 colon = system: HT29 colon

Row | SMILES | TGI (SNB-19 CNS) | TGI (NCI-H460 lung) | TGI (SF-295 CNS) | TGI (KM12 colon) | TGI (CAKI-1 renal) | TGI (SF-268 CNS) | TGI (HL-60(TB) leukemia) | TGI (K-562 leukemia) | TGI (HOP-62 NSCLC) | TGI (HT29 colon) | GI50 (SNB-19 CNS) | GI50 (NCI-H460 lung) | GI50 (SF-295 CNS) | GI50 (KM12 colon) | GI50 (CAKI-1 renal) | GI50 (SF-268 CNS) | GI50 (HL-60(TB) leukemia) | GI50 (K-562 leukemia) | GI50 (HOP-62 NSCLC) | GI50 (HT29 colon)
1 | O=C(O)CS(=O)c1ccc2c3c(cccc13)C(=O)c1ccccc1-2 (stereo not drawn) | > 100 µM | > 100 µM | > 100 µM | > 100 µM | > 100 µM | > 100 µM | > 100 µM | > 100 µM | > 100 µM | > 100 µM | – | – | – | – | – | – | – | – | – | –
2 | O=C(Nc1ccc(Cl)cc1)c1cccc([N+](=O)[O-])c1O | > 50.9 µM | > 53.5 µM | 15.5 µM | > 62.4 µM | 17.1 µM | > 85 µM | 7.18 µM | 24.2 µM | 9.13 µM | > 73.1 µM | – | – | – | – | – | – | – | – | – | –
3 | COc1cc(C(=O)O[C@H](C(=O)NCCNC(=O)[C@@H](OC(=O)c2cc(OC)cc3c(C)cccc23)[C@]2(C)CO2)[C@]2(C)CO2)c2cccc(C)c2c1 | – | 0.359 µM | 0.793 µM | 0.278 µM | 0.252 µM | 0.191 µM | – | 15.3 µM | 0.919 µM | 29.1 µM | 0.22 µM | < 0.0214 µM | 0.173 µM | 0.0438 µM | 0.0563 µM | < 0.01 µM | < 0.01 µM | < 0.0193 µM | 0.16 µM | < 0.0198 µM
4 | NC(Cc1ccccc1)=NCC(=O)O | > 100 µM | > 100 µM | > 100 µM | > 100 µM | > 100 µM | > 100 µM | > 100 µM | > 100 µM | > 100 µM | > 100 µM | – | – | – | – | – | – | – | – | – | –
5 | O=C(Nc1ccc(-n2cc(-c3ccncc3)c(-c3ccc(O)c(Cl)c3)n2)cc1)c1cc(Cl)cc(Cl)c1 | > 32.5 µM | > 32.5 µM | 5.3 µM | > 32.5 µM | 28 µM | > 32.5 µM | > 32.5 µM | > 32.5 µM | > 32.5 µM | 5.11 µM | 2.95 µM | 2 µM | 1.05 µM | 1.47 µM | 2.64 µM | 3.85 µM | 1.6 µM | 1.02 µM | 2.87 µM | 1.01 µM
6 | C\C=C/C=C/C=C/C(=O)O | > 100 µM | > 100 µM | > 100 µM | > 100 µM | > 100 µM | > 100 µM | > 100 µM | > 100 µM | > 100 µM | > 100 µM | – | – | – | – | – | – | – | – | – | –
